Assay results published in ChEMBL document CHEMBL3046649, “Fungitoxic and Phytotoxic Activities of Cinnamic Acid Esters and Amides” (2000).

Tests used:
[1] = system: Brassica rapa subsp. chinensis; assay: whole plant or invertebrate; format: functional; conditions: 72 h, read-out: GI
Description: Phytotoxicity against Brassica rapa subsp. chinensis assessed as growth inhibition of hypocotyl at 100 ppm treated to seeds after 3 days

[2] = system: Pythium; assay: microbe, parasite or virus in culture; format: functional; conditions: read-out: GI
Description: Fungitoxic activity against Pythium sp. assessed as mycelial growth inhibition at 100 ppm after 4 to 5 days by agar dilution method

[3] = system: Brassica rapa subsp. chinensis; assay: whole plant or invertebrate; format: functional; conditions: 72 h, read-out: GI; remark: listed apart in the source
Description: Phytotoxicity against Brassica rapa subsp. chinensis assessed as growth inhibition of radicle at 100 ppm treated to seeds after 3 days

[4] = system: Pythium; assay: Fungitoxic activity against Pythium sp. assessed as mycelial growth inhibition at 10 ppm after 4 to 5 days by agar dilution method; conditions: read-out: GI
[5] = system: Athelia rolfsii; assay: Fungitoxic activity against Athelia rolfsii assessed as mycelial growth inhibition at 10 ppm after 4 to 5 days by agar dilution method; format: functional; conditions: Agroathelia rolfsii; read-out: GI
[6] = system: Athelia rolfsii; assay: microbe, parasite or virus in culture; format: functional; conditions: Agroathelia rolfsii, read-out: GI
Description: Fungitoxic activity against Athelia rolfsii assessed as mycelial growth inhibition at 100 ppm after 4 to 5 days by agar dilution method

SMILES | inhibition of growth at 100 ppm [1] [%] | inhibition of growth at 100 ppm [2] [%] | inhibition of growth at 100 ppm [3] [%] | inhibition of growth at 10 ppm [4] [%] | inhibition of growth at 10 ppm [5] [%] | inhibition of growth at 100 ppm [6] [%]
COC(=O)/C=C/c1ccc(C(C)C)cc1 | 38 | 82 | 21 | 7 | 35 | 97
CC(C)c1ccc(/C=C/C(=O)OCCOc2ccccc2)cc1 | 32 | 46 | 0 | 3 | 8 | 64
CC(C)=CCCC(C)CCOC(=O)/C=C/c1ccc(Cl)cc1 (stereo not given) [3,7-DIMETHYLOCT-6-ENYL 3-(4-CHLOROPHENYL)ACRYLATE] | 26 | 64 | 15 | 8 | 19 | 83
CC(C)=CCCC(C)CCOC(=O)/C=C/c1ccc(C(C)C)cc1 (stereo not given) [3,7-DIMETHYLOCT-6-ENYL 3-(4-ISOPROPYLPHENYL)ACRYLATE] | 39 | 69 | 0 | 12 | 9 | 87
CC(C)CNC(=O)/C=C/c1ccc(Cl)cc1 [3-(4-CHLOROPHENYL)-N-ISOBUTYLACRYLAMIDE] | 43 | 73 | 69 | 50 | 33 | 89
CC(C)NC(=O)/C=C/c1ccc(Cl)cc1 [3-(4-CHLOROPHENYL)-N-ISOPROPYLACRYLAMIDE] | 26 | 45 | 57 | 20 | 66 | 94
CCCNC(=O)/C=C/c1ccc(Cl)cc1 [3-(4-CHLOROPHENYL)-N-PROPYLACRYLAMIDE] | 43 | 88 | 64 | 30 | 32 | 97
C=CCc1ccc(OC(=O)/C=C/c2ccc(Cl)cc2Cl)c(OC)c1 [4-ALLYL-2-METHOXYPHENYL 3-(2,4-DICHLOROPHENYL)ACRYLATE] | 28 | 67 | 6 | 23 | 27 | 87
C=CCc1ccc(OC(=O)/C=C/c2ccc(Cl)cc2)c(OC)c1 [4-ALLYL-2-METHOXYPHENYL 3-(4-CHLOROPHENYL)ACRYLATE] | 38 | 89 | 49 | 8 | 14 | 89
C=CCc1ccc(OC(=O)/C=C/c2ccc(C(C)C)cc2)c(OC)c1 [4-ALLYL-2-METHOXYPHENYL 3-(4-ISOPROPYLPHENYL)ACRYLATE] | 40 | 62 | 0 | 8 | 8 | 86
CCOC(=O)/C=C/c1ccc(Cl)cc1Cl [ETHYL 3-(2,4-DICHLOROPHENYL)ACRYLATE] | 54 | 76 | 29 | 19 | 32 | 93
CCOC(=O)/C=C/c1ccc(Cl)cc1 [ETHYL 3-(4-CHLOROPHENYL)ACRYLATE] | 43 | 99 | 47 | 8 | 19 | 97
CCOC(=O)/C=C/c1ccc(C(C)C)cc1 [ETHYL 3-(4-ISOPROPYLPHENYL)ACRYLATE] | 44 | 92 | 0 | 14 | 24 | 78
CCOC(=O)/C=C/c1ccccc1 [ETHYL CINNAMATE] | 26 | 57 | 0 | 14 | 36 | 63
CC(C)OC(=O)/C=C/c1ccc(Cl)cc1Cl [ISOPROPYL 3-(2,4-DICHLOROPHENYL)ACRYLATE] | 42 | 71 | 54 | 20 | 50 | 93
